# Source: patent publication US11390604B2 (Hoffmann-La Roche Inc., priority 2019, dated 2022)
# Where a name gives a salt, the structure may show the parent alone.
# Test system: Acinetobacter baumannii ATCC 17961
# Experiment: Antimicrobial susceptibility testing: 90% growth inhibitory concentration (IC90) determination
# Type: cell-based
# Conditions: ATCC17961, Acinetobacter baumannii ATCC 17961, Iso-Sensitest broth, read-out: ATCC 17961 IC90
# Procedure, shortened: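 Broth microdilution in Iso-Sensitest medium, twofold series (e.g. 50 to 0.097 μM final), ~5×10^5 CFU/ml inoculum, 35±2 °C. OD600 read every 20 min over 16 h. IC90 derived from growth inhibition during logarithmic phase.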
row,SMILES,IC90 [nM]
1,"CCn1cc(-c2cnc(C(=O)Nc3ccc(C(=O)N4CCN(C(=O)[C@H]5[C@@H]6CNC[C@@H]65)CC4)c(Br)c3)n2C)c(C(F)(F)F)n1 [Example 263, N-[3-bromo-4-[4-[rac-(1R,5S)-3-azabicyclo[3.1.0]hexane-6-carbonyl]piperazine-1-carbonyl]phenyl]-5-[1-ethyl-3-(trifluoromethyl)pyrazol-4-yl]-1-methylimidazole-2-carboxamide;hydrochloride]",325
2,"Cn1c(-c2cn(C(CO)CCl)nc2C(F)(F)F)cnc1C(=O)Nc1ccc(C(=O)N2CCN(C(=O)C3CCNCC3)CC2)c(Cl)c1 (stereo not drawn) [Example 103, 5-[1-(1-chloro-3-hydroxypropan-2-yl)-3-(trifluoromethyl)pyrazol-4-yl]-N-[3-chloro-4-[4-(piperidine-4-carbonyl)piperazine-1-carbonyl]phenyl]-1-methylimidazole-2-carboxamide;hydrochloride]",678
3,"Cn1c(-c2cn(CC#N)nc2C(F)(F)F)cnc1C(=O)Nc1ccc(C(=O)N[C@H]2C[C@@H](NC(=O)N3CC[C@@H](N)C3)C2)c(Cl)c1 [Example 316, N-[4-[[3-[[(3R)-3-aminopyrrolidine-1-carbonyl]amino]cyclobutyl]car-bamoyl]-3-chloro-phenyl]-5-[1-(cyanomethyl)-3-(trifluoromethyl)pyrazol-4-yl]-1-methyl-imidazole-2-carboxamide; formic acid]",392
4,"Cn1c(-c2cn(C3CC3)nc2C(F)(F)F)cnc1C(=O)Nc1ccc(C(=O)N2CCN(C(=O)[C@@H]3CC[C@@H](N)C3)CC2)c(Cl)c1 [Example 230, N-(4-(4-((1R,3R)-3-aminocyclopentane-1-carbonyl)piperazine-1-carbonyl)-3-chlorophenyl)-5-(1-cyclopropyl-3-(trifluoromethyl)-1H-pyrazol-4-yl)-1-methyl-1H-imidazole-2-carboxamide hydrochloride]",266
5,"C=CCn1cc(-c2cnc(C(=O)Nc3ccc(C(=O)N4CCN(C(=O)C5CCNCC5)CC4)c(Cl)c3)n2C)c(C(F)(F)F)n1 [Example 7, 5-(1-allyl-3-(trifluoromethyl)-1H-pyrazol-4-yl)-N-(3-chloro-4-(4-(piperidine-4-carbonyl)piperazine-1-carbonyl)phenyl)-1-methyl-1H-imidazole-2-carboxamide hydrochloride]",358
6,"C#CC(C)n1cc(-c2cnc(C(=O)Nc3ccc(C(=O)N4CCN(C(=O)C5CCNCC5)CC4)c(Cl)c3)n2C)c(C(F)(F)F)n1 (stereo not drawn) [Example 9, 5-(1-(but-3-yn-2-yl)-3-(trifluoromethyl)-1H-pyrazol-4-yl)-N-(3-chloro-4-(4-(piperidine-4-carbonyl)piperazine-1-carbonyl)phenyl)-1-methyl-1H-imidazole-2-carboxamide hydrochloride]",320
7,"Cn1c(-c2cn(CC3CC3(F)F)nc2C(F)(F)F)cnc1C(=O)Nc1ccc(C(=O)N2CCN(C(=O)C3CCNCC3)CC2)c(Cl)c1 (stereo not drawn) [Example 110, N-[3-chloro-4-[4-(piperidine-4-carbonyl)piperazine-1-carbonyl]phenyl]-5-[1-[(2,2-difluorocyclopropyl)methyl]-3-(trifluoromethyl)pyrazol-4-yl]-1-methylimidazole-2-carboxamide;hydrochloride]",260
8,"C#CCn1cc(-c2cnc(C(=O)Nc3ccc(C(=O)NC[C@@H]4CNC[C@@H]4O)c(Cl)c3)n2C)c(C(F)(F)F)n1 [Example 33, N-(3-chloro-4-((((3S,4R)-4-hydroxypyrrolidin-3-yl)methyl)carbamoyl)phenyl)-1-methyl-5-(1-(prop-2-yn-1-yl)-3-(trifluoromethyl)-1H-pyrazol-4-yl)-1H-imidazole-2-carboxamide hydrochloride]",925

# Same assay, conditions: Acinetobacter baumannii, ATCC17961, read-out: ATCC 17961 IC90, Acinetobacter baumannii ATCC 17961, Iso-Sensitest broth
row,SMILES,IC90 [nM]
1,"C=C=Cn1cc(-c2cnc(C(=O)Nc3ccc(C(=O)N4CCN(C(=O)C5CCNCC5)CC4)c(Cl)c3)n2C)c(C(F)(F)F)n1 [Example 65, N-[3-chloro-4-[4-(piperidine-4-carbonyl)piperazine-1-carbonyl]phenyl]-1-methyl-5-[1-propa-1,2-dienyl-3-(trifluoromethyl)pyrazol-4-yl]imidazole-2-carboxamide; Hydrochloride]",260
